In PMC10340331, “Methylthiosulfonate-Based Cysteine Modifiers as Alternative Inhibitors of Mercurial-Sensitive Aquaporins” (Cells, 2023):
Positions count from the first letter of the chain named. Like-named read-outs stand apart in the source and are kept apart here.

Key:
Type in all cases: cell-based
AQP9 [1] = molecular target: T1, AQP9 (Homo sapiens, UniProt O43315); assay: stopped-flow light scattering water and glycerol permeability of AQP9-expressing yeast at […]
T1 sequence (O43315 1-295): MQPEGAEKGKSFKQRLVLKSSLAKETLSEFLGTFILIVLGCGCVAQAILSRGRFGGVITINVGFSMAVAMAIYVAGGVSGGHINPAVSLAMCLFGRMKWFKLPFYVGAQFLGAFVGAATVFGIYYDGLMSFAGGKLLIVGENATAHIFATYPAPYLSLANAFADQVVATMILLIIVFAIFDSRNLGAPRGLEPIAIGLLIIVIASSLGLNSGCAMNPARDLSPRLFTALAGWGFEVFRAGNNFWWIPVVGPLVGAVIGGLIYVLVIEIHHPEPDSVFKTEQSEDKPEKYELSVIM

AQP9 [2] = molecular target: T2, AQP9 (Homo sapiens, UniProt O43315, C213A); assay: stopped-flow light scattering water and glycerol permeability of AQP9 Cys213Ala-expressing yeast at […]
T2 sequence (O43315 1-295 C213A): T1 sequence (O43315 1-295) with C213A

AQP1 [3] = molecular target: T3, AQP1 (Rattus norvegicus, UniProt P29975); assay: stopped-flow light scattering water permeability of AQP1-expressing yeast; Cys189Ala variant resistant; reversed by ACC/DTT
T3 sequence (P29975 1-269): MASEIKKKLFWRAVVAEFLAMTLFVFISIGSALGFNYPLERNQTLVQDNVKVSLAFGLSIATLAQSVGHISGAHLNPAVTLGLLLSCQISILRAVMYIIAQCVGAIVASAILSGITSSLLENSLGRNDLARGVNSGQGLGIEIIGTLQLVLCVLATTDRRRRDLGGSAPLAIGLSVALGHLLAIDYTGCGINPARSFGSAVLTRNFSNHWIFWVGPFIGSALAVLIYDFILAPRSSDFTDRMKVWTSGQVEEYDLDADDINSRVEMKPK

AQP9 [4] = molecular target: T1, AQP9; assay: stopped-flow light scattering water and glycerol permeability of AQP9-expressing yeast at […]; remark: listed apart in the source
AQP9 [5] = molecular target: T2, AQP9; assay: stopped-flow light scattering water and glycerol permeability of AQP9 Cys213Ala-expressing yeast at […]; remark: listed apart in the source
AQP1 [6] = molecular target: T3, AQP1; assay: stopped-flow light scattering water permeability of AQP1-expressing yeast at […] (marginal effect); Cys189Ala variant resistant
AQP1 [7] = molecular target: T3, AQP1; assay: stopped-flow light scattering water permeability of AQP1-expressing yeast at […]; Cys189Ala variant resistant

With CS(=O)(=O)SCc1ccccc1 [BMTS] the “stopped-flow light scattering water and glycerol permeability of AQP9-expressing” value (AQP9 [1]) was “AQP9 water and glycerol permeability were strongly inhibited by BMTS and pCMBS”, the “stopped-flow light scattering water and glycerol permeability of AQP9 Cys213Ala-” value (AQP9 [2]) was “The water permeability of AQP9 Cys213Ala was still inhibited to the same degree as that of the wildtype protein” and the IC50 (AQP1 [3]) was 111 ± 3 µM.
In the case of O=S(=O)([O-])c1cc[c]([Hg][Cl])cc1 [pCMBS], the “stopped-flow light scattering water and glycerol permeability of AQP9-expressing” value (AQP9 [4]) is reported as “AQP9 water and glycerol permeability were strongly inhibited by BMTS and pCMBS” and the “stopped-flow light scattering water and glycerol permeability of AQP9 Cys213Ala-” value (AQP9 [5]) is reported as “treatment of AQP9 Cys213Ala with BMTS or pCMBS failed to generate full resistance to the Cys-modifying agents”.
With CSS(C)(=O)=O [MMTS] the “stopped-flow light scattering water permeability of AQP1-expressing yeast at 1 m” value (AQP1 [6]) was “the transfer of a small S-methyl from MMTS had a marginal effect on the water permeability”.
For CCCSS(C)(=O)=O [PMTS], the “stopped-flow light scattering water permeability of AQP1-expressing yeast at 1 m” value (AQP1 [7]) was “modification with S-n-propyl from PMTS conferred intermediate inhibition”.
